Data reported in PMC10221320.
Where two headings read alike, the source gives them in different places.

Legend:
[1] = 1 mg/kg intramuscularly; ref [34]; cited from earlier work
Source text: (§1) Contradictory results concerning the involvement of ASIC1a channels in the antidepressant activity and the in vivo effects of ASIC1a inhibitors, namely tarantula toxin, PcTx1, have been published earlier. Thus, in a number of experiments, it was shown that ASI ...

[2] = tested on: NaV1.8; set-up: method as in PMID 29134638; settings: ref [36]; cited from earlier work
[3] = tested on: ASIC1b; settings: ref [36]; cited from earlier work
[4] = tested on: ASIC3; settings: cited from earlier work
Source text: Some non-selective, low-molecular ligands of ASIC channels, acting at micromolar concentrations, are enabled for clinical medicine and veterinary procedure: local anesthetics (lidocaine and tetracaine), nonsteroidal anti-inflammatory drugs (NSAIDs) (ibuprofen, aspirin, and diclofenac), potassium-sparing diuretic amiloride and the antibacterial/antiparasitic drug, diminazene. […] Preclinical and clinical stu ... || Venom-derived toxins affecting ASICs may cause pain or, on the contrary, have analgesic, anti-inflammatory or neuroprotective effects. The first identified peptide agonist of ASIC channels, from the venom of the coral snake Micrurus tener tener, is a complex of MitTxα (Kunitz fold) and MitTxβ (phospholipase A2-like protein) subunits.

[5] = tested on: ASIC2a; settings: ref [36]; cited from earlier work
[6] = cited from earlier work
Source text: (§2) Venom-derived toxins affecting ASICs may cause pain or, on the contrary, have analgesic, anti-inflammatory or neuroprotective effects. The first identified peptide agonist of ASIC channels, from the venom of the coral snake Micrurus tener tener, is a complex of MitTxα (Kunitz fold) and MitTxβ (phospholipase A2-like protein) subunits.

[7] = tested on: hERG channels; set-up: method as in PMID 29134638; settings: ref [36]; cited from earlier work
[8] = ref [34]; cited from earlier work
[9] = tested on: ASICs; settings: ref [45]; cited from earlier work
[10] = tested on: CD-1 mice; assay: Carrageenan-induced paw edema; format: in vivo, mouse; settings: 1 mg/kg
Method: (§3) The animal studies were performed under the European Commission’s legislation (Directives 86/609/EEC, 2010/63/EU), the National Standard of the Russian Federation “Good Laboratory Practice” (GOST P 53434-2009, Moscow, Russia), and Committee on Ethics of Laboratory Animal Handling № 05/21, 20 September 2021 and 08/21, 30 December 2021 protocols (PIBOC FEB RAS). Adult female CD-1 mice weighing 25 ± 2 g were subjected to a 12 h light–dark cycle at room temperature and with ad libitum access to food and water. There were seven or eight individuals in each group.
Three groups of animals were treated with peptides at doses of 0.01, 0.1 and 1 mg/kg (intravenously) 30 min before the induction of inflammation. The control animal group received an identical volume of saline. The positive control group received diclofenac (Hemofarm A.D., Vršac, Serbia) at a dose of 1 mg/kg. The edema was induced by a 20 µL injection of 1.5% solution of λ-carrageenan (Sigma Aldrich, St. Louis, MO, USA) in the hind paw pad. The resulting edema was measured after 1, 2, 4 and 24 h using a plethysmometer (Ugo Basile, Gemonio (VA), Italy). The anti-inflammatory threshold was estimated as a decrease in the paw volume and volume growth index (%), calculated using the formula: Volume Growth Index (%) = [(VC − Vi)/Vi] × 100, (1), where VC is the volume of the paw after the introduction of carrageenan and Vi is the volume of the paw before the introduction of carrageenan.

[11] = tested on: CD-1 mice; assay: Hot plate test; format: in vivo, mouse; settings: 52 °C
Method: as §3
Thermal analgesia was tested with a Hot Plate Analgesia Meter (IITC Life Science Inc., Woodland Hills, CA, USA). Measurements were carried out 15 min after the intravenous injection of peptides at doses of 0.1 and 1 mg/kg. The control animals received 300 µL of sterile saline. Metamizole (Pharmstandard, Russia) was used as a positive control administrated intraperitoneally at a dose of 500 mg/kg 30 min before testing. Animals were placed individually on the preheated surface of a plate (up to 52 °C), and nociceptive reactions, withdrawal, or licking of the front and hind legs were recorded.

[12] = tested on: CD-1 mice; assay: Acetic-acid-induced writhings (acid-induced muscle pain model); format: in vivo, mouse; settings: 1 mg/kg i.v.
Method: as §3
Three groups of animals were treated with peptides at doses of 0.01, 0.1 and 1 mg/kg (intravenously) 15 min before an injection of 300 μL of a 0.7% acetic acid solution. The control animal group received an identical volume of saline. The positive control group received intravenously a dose 1 mg/kg of diclofenac (Hemofarm A.D., Vršac, Serbia), a commercial drug of the NSAID group. Fifteen minutes immediately after acid administration, the number of writhings and the writhing time (time in a spasmodic state) were counted.

[13] = tested on: ASIC1a, ASIC1b, ASIC2a and ASIC3 channels; settings: ref [7],[13]; read-out: IC50, inhibition of ASIC1a, ASIC1b, ASIC2a and ASIC3 channels; cited from earlier work
Source text: Some non-selective, low-molecular ligands of ASIC channels, acting at micromolar concentrations, are enabled for clinical medicine and veterinary procedure: local anesthetics (lidocaine and tetracaine), nonsteroidal anti-inflammatory drugs (NSAIDs) (ibuprofen, aspirin, and diclofenac), potassium-sparing diuretic amiloride and the antibacterial/antiparasitic drug, diminazene. […] Preclinical and clinical stu ...

[14] = tested on: rats; settings: ref [53]; cited from earlier work
Source text: as §1

[15] = eight hours after a stroke; ref [18],[19]; cited from earlier work
[16] = tested on: ASIC1a; settings: ref [20]; cited from earlier work
Source text: as §2

In the case of APETx2, the “locomotion and CNS-mediated behavior” value [1] is given as “did not impair locomotion and the CNS-mediated behavior in the open field test”, the NaV1.8 inhibition [2] is given as “inhibition” and the “effect on ASIC1b” value [3] is given as “potentiation”. The IC50 ([4]; ref [20], read-out: IC50, ASIC3) was 37 to 63 nM, the “effect on ASIC2a” value [5] was “potentiation” and the effect on edema ([6]; ref [34]) was “partially reduces edema”. For the same compound, the hERG inhibition [7] was “ability to inhibit hERG channels” and the antihyperalgesia [8] was “induces antihyperalgesia in an acid-induced muscle pain model”.

For `O=C(O)Cc1ccccc1Nc1c(Cl)cccc1Cl` [Diclofenac], the “inflammation-induced expression of ASICs” value [9] is given as “decreases the inflammation-induced expression of ASICs”, the IC50 ([4]; ref [45], read-out: IC50, sustained current component of ASIC3) is given as 92000 ± 19000 nM and the “anti-inflammatory effect, positive control” value [10] is given as “reduced inflammation more rapidly (1–24 h range)”. The “analgesic effect in hot plate test” value ([11]; peptides 0.1 and 1 mg/kg i.v.) was “did not affect the pain sensitivity in this test” and the “effect on writhings, positive control” value [12] was “reduced the number of writhings”.

For `N=C(N)NC(=O)c1nc(Cl)c(N)nc1N` [amiloride], the IC50 [13] is listed as 5000 to 100000 nM.

For “PcTx1: ICK-peptide from the tarantula Psalmopoeus cambridgei”, the anxiety levels [14] is given as “increases anxiety levels in rats”, the neuroprotection after stroke [15] is given as “ineffective” and the IC50 [16] is given as 0.3 to 3.7 nM. The antinociceptive effect ([6]; ref [23]) was “strong antinociceptive effect in the acute and neuropathic pain models”.

With `Cc1c(N(C)CS(=O)(=O)O)c(=O)n(-c2ccccc2)n1C` [Metamizole sodium] the “increase in latent time of licking both front and hind paws” value ([11]; 500 mg/kg i.p. 30 min before testing) was “more than 1.5 times”.
